Measurements reported in patent US20260183297A1, “SELECTION OF PATIENTS FOR THE TREATMENT OF FADS1-MEDIATED DISEASES OR DISORDERS USING FADS-1 INHIBITORS” (AMGEN INC., priority 2022, published 2026).
Entries after “also recorded” stand apart in the source; their conditions may differ.

Columns and labels:
human FADS1 = biological target: T1, human FADS1 (Homo sapiens, UniProt O60427); experiment: In vitro FADS1 activity assay (HEK 293 cells with FADS1 BacMam, 13C5-DGLA substrate); type: cell-based; settings: in vitro; read-out: half-maximal inhibitory concentration (IC50) against human FADS1
T1 construct: expressed in transfected cells; host or cells: HEK 293 cells transduced with FADS1 BacMam (MOI 25)
T1 sequence (O60427 whole entry): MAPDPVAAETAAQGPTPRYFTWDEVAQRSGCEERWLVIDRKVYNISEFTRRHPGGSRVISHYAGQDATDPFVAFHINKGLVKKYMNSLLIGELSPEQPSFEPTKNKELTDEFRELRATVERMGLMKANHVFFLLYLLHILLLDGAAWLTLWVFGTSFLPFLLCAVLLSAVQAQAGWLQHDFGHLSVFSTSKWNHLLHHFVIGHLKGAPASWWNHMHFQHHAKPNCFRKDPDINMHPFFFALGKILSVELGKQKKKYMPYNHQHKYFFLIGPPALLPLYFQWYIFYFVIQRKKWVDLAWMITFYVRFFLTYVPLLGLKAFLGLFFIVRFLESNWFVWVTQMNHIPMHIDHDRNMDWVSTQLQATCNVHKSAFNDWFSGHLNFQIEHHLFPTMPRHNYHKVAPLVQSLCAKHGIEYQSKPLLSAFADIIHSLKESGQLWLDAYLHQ
Method: HEK 293 cells in Dulbecco's Modified Eagle's medium (DMEM), 10% fetal bovine serum (FBS), 1× penicillin-streptomycin-glutamine (PSG) were mixed with FADS1 BacMam or FADS2 BacMam reagents at multiplicity of infection (MOI) ratio of 25 and plated in a in 96-well poly-D-lysine-coated plate. Plates were incubated in a 37° C., 5% CO2 for 24 hours. Cells were washed with DPBS and cells were incubated with 90 ml of compound dilution in DPBS at 5% CO2, 37° C. for 20 minutes. Ten L of the substrate, ^13C5-DGLA (FADS1), or 13C-LA (FADS2) diluted in DPBS were added to the cells and incubated at 5% CO2, 37° C. for 30 minutes (FADS1) or 45 minutes (FADS2). Cells were then washed with DPBS and 50 μL of 2N NaOH were added to each well and incubated in a 65° C. oven for 1 hour for the saponification reaction. […] Samples were then subjected to LC-MS/MS detection for the following analytes for the FADS1 reaction: ^13C5-DGLA and ^13C5-AA or the following analytes for the FADS2 reaction: ^13C18-LA, ^13C18-GLA, ^13C18-DGLA and ^13C18-AA. Samples were injected onto a Poroshell 120 EC-C18 3.0×50 mm, 1.9 um id column (Agilent, Santa Clara, CA).
The analyte peak areas were quantified by using the Analyst software (SCIEX, Framingham, MA). The percent of substrate to product conversion relative to untreated control were calculated (percent of control [POC]). […]

[1] = Chronic FADS1 inhibition study in DIO mice (body weight, food intake); type: in vivo, mouse; settings: for lower body weight relative to vehicle-treated mice: 54 days
Method: (§1) Body weight was measured daily and used for dosing calculations. A 4-hour fasted retro-orbital blood sample was collected at baseline and day 46 and used for insulin, cholesterol, and triglyceride analysis. A 3-day average food consumption was measured on days 39-41. All animals received 0.1 ml of 2 mM ^13C5-DGLA by IP injection 23.5 hours after the last PO gavage with the different treatment to allow for 30 minutes of exposure prior to necropsy to determine the residual in vivo FADS1 activity.

[2] = Plasma lipid, glucose, insulin and metabolic profile measurements in DIO mice; type: in vivo, mouse; settings: for Alanine Aminotransferase / Cholesterol / HDL-Cholesterol / Insulin / LDL-Cholesterol / Non-esterified fatty acids / Triglycerides: DIO mice plasma; for Alanine Aminotransferase / Cholesterol / HDL-Cholesterol / Insulin / LDL-Cholesterol / Non-esterified fatty acids / Triglycerides / C-reactive Protein / Glucose / Serum Amyloid A: mean ± SD
Method: as §1
Mice were bled consciously from the retro-orbital sinus, and blood was collected into EDTA plasma tubes. Plasma lipids were measured using the Olympus AU400e Chemistry Analyzer (Olympus America, Center Valley, PA). Plasma insulin was measured using the ALPCO mouse high range insulin ELISA (Alpco, Salem, NH). Blood glucose was measured using an AlphaTRAK blood glucometer (Zoetis, Parsippany, NJ).

[3] = Liver triglyceride measurement; type: in vivo, mouse; settings: DIO mice, 8 weeks of 10 or 30 mg/kg
Method: Liver total lipids were homogenized and extracted using chloroform methanol solution at a ratio of 2:1. Extracted lipids were dried under nitrogen gas and suspended in 90% isopropanol, 10% Triton X-100 solution. Liver triglyceride levels in mg/g tissue were determined using total triglyceride measurement kits from Wako Diagnostics (Richmond, VA) and Sigma-Aldrich (Burlington, MA).

[4] = Tissue endocannabinoid measurement (2-AG, AEA); type: in vivo, mouse; settings: liver and ING WAT, DIO mice, 30 mg/kg
Method: Approximately 200 mg of tissue per sample were used for endocannbabinoid extraction. To each frozen tissue sample, 10 μl of ice-cold 100 mM butylated hydroxytoluene (BHT; in methanol) and 0.5 ml of 100 nM AEA-d8 (in water) were added. Tissue sample solution with BHT were immediately homogenized using TissueLyser (QIAGEN, Germantown. MD) for 3 minutes at 30 Hz, followed by two consecutive 1.25 ml of ice-cold ethyl acetate:hexane (9:1) extraction. The pooled extracts were dried to complete dryness under nitrogen gas. Dried samples were redissolved in 80% acetonitrile and subjected to LC/MS analysis. 10 μl of sample was injected onto a Kinetex C18 2.1×100 mm, 2.6 μm column (Phenomenex, Torrance, CA). Mobile phase A is 0.2% acetic acid in water and mobile phase B is 0.1% formic acid in acetonitrile. The LC gradient was a 7-minute long method at a flow rate of 0.2 ml/minute consisting of an isocratic period from 0 to 1 minute at 75% B, followed by a gradient from 75 to 100% from 1 to 4 minutes, and 100 to 75% B from 4 to 7 minutes. The analyte peak areas were quantified using the Analyst software (SCIEX, Framingham MA).

[5] = DIO mice, 10 mg kg^−1, 46 or 54 days
[6] = DIO mice, 30 mg kg^−1, 46 or 54 days
[7] = DIO mice, 10 and 30 mg/kg daily oral

COc1ccn2c(=O)c(-c3cnn(CC(F)(F)C(F)(F)F)c3)c(C(F)(F)F)nc2c1 [Compound A, 8-methoxy-3-(1-(2,2,3,3,3-pentafluoropropyl)-1H-pyrazol-4-yl)-2-(trifluoromethyl)-4H-pyrido[1,2-a]pyrimidin-4-one]
IC50 (human FADS1): 3 nM | lower body weight relative to vehicle-treated mice ([1]; 10 mg/kg daily oral): 17.9% | lower body weight relative to vehicle-treated mice ([1]; 30 mg/kg daily oral): 21.1% | food intake ([1]; 10 and 30 mg/kg daily oral): without affecting food intake; also recorded: No significant differences | plasma liver enzyme alanine aminotransferase (ALT) ([2]; Compound A-treated DIO mice): decreased | Alanine Aminotransferase ([2]; 10 mg kg^−1, 46 or 54 days): 142.8 ± 26.6 U L^−1 | Cholesterol ([2]; 10 mg kg^−1, 46 or 54 days): 173.0 ± 11.9 mg/dL | HDL-Cholesterol ([2]; 10 mg kg^−1, 46 or 54 days): 86.4 ± 8.0 mg/dL | Insulin ([2]; 10 mg kg^−1, 46 or 54 days): 3.7 ± 3.2 ng/mL | LDL-Cholesterol ([2]; 10 mg kg^−1, 46 or 54 days): 22.4 ± 2.3 mg/dL | Non-esterified fatty acids ([2]; 10 mg kg^−1, 46 or 54 days): 0.9 ± 0.1 mEq L^−1 | Triglycerides ([2]; 10 mg kg^−1, 46 or 54 days): 77.8 ± 13.7 mg/dL | Alanine Aminotransferase ([2]; 30 mg kg^−1, 46 or 54 days): 102.0 ± 32.4 U L^−1 | Cholesterol ([2]; 30 mg kg^−1, 46 or 54 days): 165.3 ± 15.6 mg/dL | HDL-Cholesterol ([2]; 30 mg kg^−1, 46 or 54 days): 85.7 ± 5.5 mg/dL | Insulin ([2]; 30 mg kg^−1, 46 or 54 days): 2.2 ± 1.3 ng/mL | LDL-Cholesterol ([2]; 30 mg kg^−1, 46 or 54 days): 19.7 ± 2.5 mg/dL | Non-esterified fatty acids ([2]; 30 mg kg^−1, 46 or 54 days): 0.7 ± 0.1 mEq L^−1 | Triglycerides ([2]; 30 mg kg^−1, 46 or 54 days): 63.3 ± 9.7 mg/dL | C-reactive Protein [2, 5]: 43.6 ± 9.7 µg/mL | Glucose [2, 5]: 170.3 ± 22.3 mg/dL | Serum Amyloid A [2, 5]: 5.2 ± 1.3 µg/mL | plasma insulin decrease vs vehicle ([2]; DIO mice, 10 mg/kg daily oral): 74.9% | C-reactive Protein [2, 6]: 37.1 ± 6.5 µg/mL | Glucose [2, 6]: 168.6 ± 23.2 mg/dL | Serum Amyloid A [2, 6]: 4.8 ± 1.8 µg/mL | lower plasma triglycerides vs vehicle ([2]; DIO mice, 30 mg/kg daily oral): 41.6% | plasma insulin decrease vs vehicle ([2]; DIO mice, 30 mg/kg daily oral): 84.7% | plasma cholesterol [2, 7]: lowered; also recorded: trended lower | plasma triglycerides [2, 7]: dose-dependent decreases | hepatic triglyceride content [3]: No apparent increase | endocannabinoid (2-AG, AEA) levels [4]: Decreased levels of endocannabinoids
